From paper PMC11167047 (Cell Death Discovery, 2024)

Tests used:
Experiment in all cases: kinome screen (33PanQinase)
Type in all cases: biochemical
[1] = molecular target: T1, CDK9/CycT1 (Homo sapiens, UniProt P50750)
T1 construct: purchased Reaction Biology Europe GmbH (formerly ProQinase)
Description: (§1) The Kinome Screening was performed by Reaction Biology Europe GmbH (http://reactionbiology.com; Freiburg i. Br., Germany).

[2] = molecular target: T2, TEC (Homo sapiens, UniProt P42680)
T2 construct: purchased Reaction Biology Europe GmbH (formerly ProQinase)
T2 sequence (P42680 1-631): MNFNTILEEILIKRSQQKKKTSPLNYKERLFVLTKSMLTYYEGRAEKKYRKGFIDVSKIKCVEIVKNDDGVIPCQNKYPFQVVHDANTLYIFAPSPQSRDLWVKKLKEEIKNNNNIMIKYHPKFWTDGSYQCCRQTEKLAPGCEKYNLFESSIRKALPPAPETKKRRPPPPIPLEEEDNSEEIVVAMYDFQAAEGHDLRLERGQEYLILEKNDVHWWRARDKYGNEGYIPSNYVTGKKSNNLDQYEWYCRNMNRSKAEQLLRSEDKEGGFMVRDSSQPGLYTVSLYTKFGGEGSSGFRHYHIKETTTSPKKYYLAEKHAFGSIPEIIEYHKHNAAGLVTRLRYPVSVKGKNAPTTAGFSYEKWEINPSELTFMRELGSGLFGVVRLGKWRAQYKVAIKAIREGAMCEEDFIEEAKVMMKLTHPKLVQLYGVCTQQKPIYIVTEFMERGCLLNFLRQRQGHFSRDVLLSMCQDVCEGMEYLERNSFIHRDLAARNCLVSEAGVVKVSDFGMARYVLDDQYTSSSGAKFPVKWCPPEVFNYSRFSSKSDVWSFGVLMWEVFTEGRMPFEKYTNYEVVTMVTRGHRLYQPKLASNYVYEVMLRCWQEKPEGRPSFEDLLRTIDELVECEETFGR
Description: as §1

[3] = molecular target: T3, GRK5 (Homo sapiens, UniProt P34947)
T3 construct: purchased Reaction Biology Europe GmbH (formerly ProQinase)
Description: as §1

[4] = molecular target: T4, TAOK2 (Homo sapiens, UniProt Q9UL54)
T4 construct: purchased Reaction Biology Europe GmbH (formerly ProQinase)
T4 sequence (Q9UL54 1-1235): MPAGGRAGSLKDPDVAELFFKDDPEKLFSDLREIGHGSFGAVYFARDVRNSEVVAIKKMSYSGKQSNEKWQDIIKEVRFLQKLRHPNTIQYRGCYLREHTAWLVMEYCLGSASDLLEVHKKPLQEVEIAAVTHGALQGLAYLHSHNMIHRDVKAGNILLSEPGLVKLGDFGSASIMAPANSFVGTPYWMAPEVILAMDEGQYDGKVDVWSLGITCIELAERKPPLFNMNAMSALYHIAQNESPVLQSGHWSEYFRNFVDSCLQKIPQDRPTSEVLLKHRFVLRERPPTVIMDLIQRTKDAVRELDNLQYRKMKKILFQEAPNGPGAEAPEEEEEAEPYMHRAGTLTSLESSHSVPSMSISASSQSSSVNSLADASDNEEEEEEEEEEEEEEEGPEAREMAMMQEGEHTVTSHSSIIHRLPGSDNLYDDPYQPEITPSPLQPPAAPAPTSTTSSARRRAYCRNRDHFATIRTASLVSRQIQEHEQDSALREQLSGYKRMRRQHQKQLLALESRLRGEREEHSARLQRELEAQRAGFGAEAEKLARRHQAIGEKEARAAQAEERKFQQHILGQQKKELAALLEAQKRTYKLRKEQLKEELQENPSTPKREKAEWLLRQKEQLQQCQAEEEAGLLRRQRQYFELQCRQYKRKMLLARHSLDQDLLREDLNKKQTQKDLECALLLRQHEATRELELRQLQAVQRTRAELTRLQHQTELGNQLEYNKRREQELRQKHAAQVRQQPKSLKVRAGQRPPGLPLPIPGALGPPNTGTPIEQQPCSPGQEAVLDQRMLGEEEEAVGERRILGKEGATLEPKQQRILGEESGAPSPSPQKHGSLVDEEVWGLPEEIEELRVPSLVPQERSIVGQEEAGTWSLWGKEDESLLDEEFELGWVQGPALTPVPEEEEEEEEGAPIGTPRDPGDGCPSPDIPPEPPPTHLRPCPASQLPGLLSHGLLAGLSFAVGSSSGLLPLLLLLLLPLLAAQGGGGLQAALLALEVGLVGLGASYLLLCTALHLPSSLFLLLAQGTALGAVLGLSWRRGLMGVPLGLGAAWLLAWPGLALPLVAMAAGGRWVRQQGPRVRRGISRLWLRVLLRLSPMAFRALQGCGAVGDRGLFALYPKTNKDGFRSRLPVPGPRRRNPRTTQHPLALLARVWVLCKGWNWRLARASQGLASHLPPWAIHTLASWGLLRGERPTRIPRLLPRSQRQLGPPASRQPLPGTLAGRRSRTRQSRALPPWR
Description: as §1

[5] = molecular target: T5, ZAP70 (Homo sapiens, UniProt P43403)
T5 construct: purchased Reaction Biology Europe GmbH (formerly ProQinase)
T5 sequence (P43403 1-619): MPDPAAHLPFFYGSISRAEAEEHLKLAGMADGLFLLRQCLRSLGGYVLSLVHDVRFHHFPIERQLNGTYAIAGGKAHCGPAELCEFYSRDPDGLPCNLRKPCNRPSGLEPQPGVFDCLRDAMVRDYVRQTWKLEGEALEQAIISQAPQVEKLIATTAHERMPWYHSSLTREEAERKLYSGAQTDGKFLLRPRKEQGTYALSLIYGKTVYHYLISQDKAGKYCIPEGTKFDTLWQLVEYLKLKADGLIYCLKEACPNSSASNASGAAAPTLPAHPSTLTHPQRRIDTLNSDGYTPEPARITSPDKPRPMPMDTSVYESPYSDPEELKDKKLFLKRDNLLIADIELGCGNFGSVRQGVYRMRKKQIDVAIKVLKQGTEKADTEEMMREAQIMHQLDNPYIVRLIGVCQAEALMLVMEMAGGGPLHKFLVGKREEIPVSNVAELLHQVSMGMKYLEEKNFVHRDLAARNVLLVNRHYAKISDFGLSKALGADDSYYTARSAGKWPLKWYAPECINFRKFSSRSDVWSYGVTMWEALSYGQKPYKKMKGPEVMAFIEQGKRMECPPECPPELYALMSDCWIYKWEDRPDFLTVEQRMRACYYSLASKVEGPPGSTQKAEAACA
Description: as §1

[6] = molecular target: T6, SYK (Homo sapiens, UniProt P43405)
T6 construct: purchased Reaction Biology Europe GmbH (formerly ProQinase)
Description: as §1

[7] = molecular target: T7, CAMK2G (Homo sapiens, UniProt Q13555)
T7 construct: purchased Reaction Biology Europe GmbH (formerly ProQinase)
Description: as §1

[8] = molecular target: T8, CHK2 (Homo sapiens, UniProt O96017)
T8 construct: purchased Reaction Biology Europe GmbH (formerly ProQinase)
Description: as §1

T8 sequence (O96017 whole entry): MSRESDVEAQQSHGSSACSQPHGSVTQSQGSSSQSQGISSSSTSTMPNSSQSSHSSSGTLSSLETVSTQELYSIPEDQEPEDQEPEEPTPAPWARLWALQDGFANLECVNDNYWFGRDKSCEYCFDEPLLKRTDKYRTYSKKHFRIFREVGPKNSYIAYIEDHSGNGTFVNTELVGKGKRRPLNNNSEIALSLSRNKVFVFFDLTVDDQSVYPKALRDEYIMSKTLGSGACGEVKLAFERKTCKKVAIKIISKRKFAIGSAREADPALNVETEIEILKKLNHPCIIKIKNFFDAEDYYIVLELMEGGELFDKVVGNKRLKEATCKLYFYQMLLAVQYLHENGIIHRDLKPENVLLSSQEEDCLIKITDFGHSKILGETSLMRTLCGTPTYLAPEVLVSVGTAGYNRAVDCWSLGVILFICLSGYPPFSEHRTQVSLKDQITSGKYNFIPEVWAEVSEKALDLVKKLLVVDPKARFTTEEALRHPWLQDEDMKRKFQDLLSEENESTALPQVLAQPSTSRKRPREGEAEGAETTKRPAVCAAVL
T1 sequence (P50750 whole entry): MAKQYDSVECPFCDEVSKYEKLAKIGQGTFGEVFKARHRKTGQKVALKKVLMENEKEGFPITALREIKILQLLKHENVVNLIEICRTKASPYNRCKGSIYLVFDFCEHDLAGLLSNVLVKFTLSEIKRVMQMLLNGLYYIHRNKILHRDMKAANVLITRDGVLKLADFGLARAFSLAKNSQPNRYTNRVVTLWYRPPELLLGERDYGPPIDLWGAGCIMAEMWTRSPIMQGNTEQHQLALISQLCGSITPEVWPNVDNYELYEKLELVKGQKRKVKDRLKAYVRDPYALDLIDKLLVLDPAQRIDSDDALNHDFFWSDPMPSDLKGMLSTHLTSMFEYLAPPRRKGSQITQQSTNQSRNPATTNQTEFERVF
T1 sequence (O60563 whole entry partner): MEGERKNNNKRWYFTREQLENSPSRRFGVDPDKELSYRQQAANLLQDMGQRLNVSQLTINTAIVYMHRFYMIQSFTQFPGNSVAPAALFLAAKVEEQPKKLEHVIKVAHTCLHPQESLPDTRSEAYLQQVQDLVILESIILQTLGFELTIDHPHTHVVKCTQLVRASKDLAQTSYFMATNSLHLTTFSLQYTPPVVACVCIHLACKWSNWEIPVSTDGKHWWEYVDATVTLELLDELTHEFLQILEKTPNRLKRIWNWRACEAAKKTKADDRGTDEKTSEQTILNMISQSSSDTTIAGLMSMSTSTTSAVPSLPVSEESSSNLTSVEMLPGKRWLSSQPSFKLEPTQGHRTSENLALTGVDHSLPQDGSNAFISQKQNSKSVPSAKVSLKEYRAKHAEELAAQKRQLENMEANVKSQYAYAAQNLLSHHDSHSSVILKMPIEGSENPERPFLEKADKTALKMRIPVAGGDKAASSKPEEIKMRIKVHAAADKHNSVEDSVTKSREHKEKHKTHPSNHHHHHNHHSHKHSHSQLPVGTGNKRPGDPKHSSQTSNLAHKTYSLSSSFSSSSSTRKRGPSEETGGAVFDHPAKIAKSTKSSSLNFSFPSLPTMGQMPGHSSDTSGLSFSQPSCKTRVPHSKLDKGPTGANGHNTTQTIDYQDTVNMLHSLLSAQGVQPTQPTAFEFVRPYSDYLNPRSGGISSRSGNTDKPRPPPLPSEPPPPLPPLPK
T3 sequence (P34947 whole entry): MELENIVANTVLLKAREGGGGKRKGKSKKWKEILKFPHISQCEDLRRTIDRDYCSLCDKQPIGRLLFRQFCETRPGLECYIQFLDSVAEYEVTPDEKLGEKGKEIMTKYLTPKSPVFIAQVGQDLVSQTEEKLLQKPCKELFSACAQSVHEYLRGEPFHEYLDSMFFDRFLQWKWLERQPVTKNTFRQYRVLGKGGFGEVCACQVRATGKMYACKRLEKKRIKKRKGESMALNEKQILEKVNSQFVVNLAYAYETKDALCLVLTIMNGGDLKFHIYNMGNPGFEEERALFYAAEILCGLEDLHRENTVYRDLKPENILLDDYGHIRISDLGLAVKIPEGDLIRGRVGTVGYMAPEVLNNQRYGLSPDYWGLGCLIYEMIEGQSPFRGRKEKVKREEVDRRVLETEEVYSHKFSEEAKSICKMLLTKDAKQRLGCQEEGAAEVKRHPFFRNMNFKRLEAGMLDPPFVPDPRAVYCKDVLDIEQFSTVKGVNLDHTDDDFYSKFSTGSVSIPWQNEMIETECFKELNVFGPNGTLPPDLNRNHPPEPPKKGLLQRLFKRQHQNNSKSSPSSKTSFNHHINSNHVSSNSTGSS
T7 sequence (Q13555 whole entry): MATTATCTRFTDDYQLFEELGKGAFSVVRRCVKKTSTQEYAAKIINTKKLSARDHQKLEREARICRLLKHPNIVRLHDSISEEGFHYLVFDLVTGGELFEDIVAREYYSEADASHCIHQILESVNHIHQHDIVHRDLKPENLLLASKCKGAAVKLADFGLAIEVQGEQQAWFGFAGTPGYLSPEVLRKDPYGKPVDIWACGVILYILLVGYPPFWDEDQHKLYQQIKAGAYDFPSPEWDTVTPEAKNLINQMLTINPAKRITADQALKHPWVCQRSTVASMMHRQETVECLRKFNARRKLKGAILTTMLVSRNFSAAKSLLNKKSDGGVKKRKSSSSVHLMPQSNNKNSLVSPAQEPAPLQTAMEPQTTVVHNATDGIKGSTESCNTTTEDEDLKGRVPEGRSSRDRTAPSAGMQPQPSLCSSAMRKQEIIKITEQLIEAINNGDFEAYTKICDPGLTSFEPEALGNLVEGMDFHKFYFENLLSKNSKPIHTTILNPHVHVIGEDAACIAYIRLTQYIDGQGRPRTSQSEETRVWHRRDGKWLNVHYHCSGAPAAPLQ

COc1ccnc2[nH]cc(-c3cc(N)nc(N)c3)c12 [meriolin 16]
residual kinase activity ([1]; 0.03 µM): 13 % of control | residual kinase activity ([1]; 0.3 µM): 2 % of control | residual kinase activity ([2]; 0.03 µM): 110 % of control | residual kinase activity ([2]; 0.3 µM): 101 % of control | residual kinase activity ([3]; 0.03 µM): 118 % of control | residual kinase activity ([3]; 0.3 µM): 91 % of control | residual kinase activity ([4]; 0.03 µM): 107 % of control | residual kinase activity ([4]; 0.3 µM): 89 % of control | residual kinase activity ([5]; 0.03 µM): 95 % of control | residual kinase activity ([5]; 0.3 µM): 83 % of control | residual kinase activity ([6]; 0.03 µM): 93 % of control | residual kinase activity ([6]; 0.3 µM): 84 % of control | residual kinase activity ([7]; 0.03 µM): 94 % of control | residual kinase activity ([7]; 0.3 µM): 82 % of control | residual kinase activity ([8]; 0.03 µM): 90 % of control | residual kinase activity ([8]; 0.3 µM): 82 % of control

c1ccc(CNc2cc(-c3c[nH]c4ncccc34)ccn2)cc1 [meriolin 36]
residual kinase activity ([1]; 0.3 µM): 1 % of control | residual kinase activity ([1]; 3 µM): 0 % of control | residual kinase activity ([2]; 0.3 µM): 114 % of control | residual kinase activity ([2]; 3 µM): 96 % of control | residual kinase activity ([3]; 0.3 µM): 119 % of control | residual kinase activity ([3]; 3 µM): 74 % of control | residual kinase activity ([4]; 0.3 µM): 60 % of control | residual kinase activity ([4]; 3 µM): 19 % of control | residual kinase activity ([5]; 0.3 µM): 110 % of control | residual kinase activity ([5]; 3 µM): 85 % of control | residual kinase activity ([6]; 0.3 µM): 90 % of control | residual kinase activity ([6]; 3 µM): 64 % of control | residual kinase activity ([7]; 0.3 µM): 34 % of control | residual kinase activity ([7]; 3 µM): 6 % of control | residual kinase activity ([8]; 0.3 µM): 81 % of control | residual kinase activity ([8]; 3 µM): 41 % of control
